Results taken from the NIST ThermoML archive (doi:10.1021/je400529k).
“And” between values parts separate entries of the source, which are not always exact repeats. Identical values can stand only once.

Tests used:
[1] = xn = mol fraction of the nth substance listed; conditions: 101 kPa, Liquid; for viscosity: Capillary tube (Ostwald / Ubbelohde) method; for mass density: Vibrating tube method
[2] = refractive index (Na D-line) (dimensionless); xn = mol fraction of the nth substance listed; conditions: 101 kPa, Liquid, Standard Abbe refractometry
[3] = 101 kPa, Liquid; for viscosity: Capillary tube (Ostwald / Ubbelohde) method; for mass density: Vibrating tube method
[4] = refractive index (Na D-line) (dimensionless); conditions: 101.33 kPa, Liquid, Standard Abbe refractometry

C1C[C@@H]2[C@H]3CC[C@H](C3)[C@@H]2C1 [exo-tetrahydrodicyclopentadiene] + CC1CCC(C)C(C)C1
x1 = 1
Conditions	mass density, [1] [kg/m3]	refractive index, [2]	viscosity, [1] [mPa·s]
293.15 K	935.72	1.4874	2.992
298.15 K	931.84	–	2.71
303.15 K	927.94	1.4831	2.467
308.15 K	924.02	–	2.255
313.15 K	920.11	1.4786	2.069
318.15 K	916.18	–	1.907

C1CCCCC1 [cyclohexane] + C1C[C@@H]2[C@H]3CC[C@H](C3)[C@@H]2C1
x2 = 0
Conditions	mass density, [1] [kg/m3]	refractive index, [2]	viscosity, [1] [mPa·s]
293.15 K	778.51	1.4256	0.977
298.15 K	773.84	–	0.898
303.15 K	769.11	1.4205	0.828
308.15 K	764.36	–	0.766
313.15 K	759.57	1.4143	0.712
318.15 K	–	–	0.664

CCCCC1CCCCC1 [butylcyclohexane] + C1C[C@@H]2[C@H]3CC[C@H](C3)[C@@H]2C1
x2 = 0
Conditions	mass density, [1] [kg/m3]	refractive index, [2]	viscosity, [1] [mPa·s]
293.15 K	799.47	1.4399	1.302
298.15 K	795.71	–	1.2
303.15 K	791.96	1.4354	1.111
308.15 K	788.2	–	1.032
313.15 K	784.43	1.4311	0.962
318.15 K	780.65	–	0.899

C1C[C@@H]2[C@H]3CC[C@H](C3)[C@@H]2C1 [exo-tetrahydrodicyclopentadiene] + CCC1CCCCC1
x1 = 1
Conditions	mass density, [1] [kg/m3]	refractive index, [2]	viscosity, [1] [mPa·s]
293.15 K	935.72	1.4874	2.992
298.15 K	931.84	–	2.71
303.15 K	927.9	1.4831	2.467
308.15 K	924.02	–	2.255
313.15 K	920.11	1.4786	2.069
318.15 K	916.18	–	1.907

C1C[C@@H]2[C@H]3CC[C@H](C3)[C@@H]2C1 [exo-tetrahydrodicyclopentadiene]
Conditions	mass density, [3]	refractive index, [4]	viscosity, [3] [mPa·s]
293.15 K	935.72 kg/m3	1.4874	2.992
298.15 K	931.84 kg/m3	–	2.71
303.15 K	927.94 kg/m3 and 927.9 kg/m3	1.4831	2.467
308.15 K	924.02 kg/m3	–	2.255
313.15 K	920.11 kg/m3	1.4786	2.069
318.15 K	916.18 kg/m3	–	1.907

C1CCCCC1 [cyclohexane]
Conditions	mass density, [3] [kg/m3]	refractive index, [4]	viscosity, [3] [mPa·s]
293.15 K	778.51	1.4256	0.977
298.15 K	773.84	–	0.898
303.15 K	769.11	1.4205	0.828
308.15 K	764.36	–	0.766
313.15 K	759.57	1.4143	0.712
318.15 K	–	–	0.664

CC1CCCCC1 [methylcyclohexane]
Conditions	mass density, [3] [kg/m3]	refractive index, [4]	viscosity, [3] [mPa·s]
293.15 K	769.35	1.422	0.733
298.15 K	765.04	–	0.687
303.15 K	760.71	1.4172	0.646
308.15 K	756.36	–	0.609
313.15 K	751.99	1.4118	0.576
318.15 K	747.6	–	0.546

CCCCC1CCCCC1 [butylcyclohexane]
Conditions	mass density, [3] [kg/m3]	refractive index, [4]	viscosity, [3] [mPa·s]
293.15 K	799.47	1.4399	1.302
298.15 K	795.71	–	1.2
303.15 K	791.96	1.4354	1.111
308.15 K	788.2	–	1.032
313.15 K	784.43	1.4311	0.962
318.15 K	780.65	–	0.899

CCC1CCCCC1 [ethylcyclohexane]
Conditions	mass density, [3] [kg/m3]	refractive index, [4]	viscosity, [3] [mPa·s]
293.15 K	788.02	1.4319	0.845
298.15 K	784.01	–	0.791
303.15 K	779.98	1.4276	0.743
308.15 K	775.93	–	0.7
313.15 K	771.86	1.4225	0.661
318.15 K	767.78	–	0.626

CC1CCCCC1 [methylcyclohexane] + C1C[C@@H]2[C@H]3CC[C@H](C3)[C@@H]2C1
x2 = 0
Conditions	mass density, [1] [kg/m3]	refractive index, [2]	viscosity, [1] [mPa·s]
293.15 K	769.35	1.422	0.733
298.15 K	765.04	–	0.687
303.15 K	760.71	1.4172	0.646
308.15 K	756.36	–	0.609
313.15 K	751.99	1.4118	0.576
318.15 K	747.6	–	0.546

CC1CCC(C)C(C)C1 (stereo not drawn) [1,2,4-trimethylcyclohexane]
Conditions	mass density, [3] [kg/m3]	refractive index, [4]	viscosity, [3] [mPa·s]
293.15 K	790.8	1.4331	0.886
298.15 K	786.92	–	0.827
303.15 K	783.03	1.4285	0.774
308.15 K	779.13	–	0.727
313.15 K	775.23	1.424	0.686
318.15 K	771.32	–	0.648
